Tested on: parental untransformed BaF3 cells
Assay: Tritiated thymidine uptake cell proliferation assay, parental BaF3
Type: cell-based
Conditions: Mus musculus, BaF3, read-out: Parental IC50
Protocol: Tritiated Thymidine Uptake Cell Proliferation Assay
The parent untransformed BaF3 cells and ALK-negative cells are used as controls. Cells are seeded in U-bottomed 96-well plates at 10 000 cells/well in a volume of 100 μL in supplemented medium. In the case of the parent untransformed BaF3 cells, the medium is supplemented with IL-3. Serial dilutions of inhibitors are added to the appropriate wells and volumes adjusted to 200 μL. Controls were treated with the equivalent volume of vehicle, DMSO, alone. Plates are incubated at 37° C. for 72 h. ^3[H]-thymidine (1 μCiCi/well) is added for the last 8 h of incubation. Cells are harvested on to paper filters and ^3[H]-thymidine incorporation is measured using a β scintillation counter (1430 MicroBeta, Wallac, Turku, Finland). The 50% inhibitory concentration (IC50) is defined as the concentration of inhibitor, expressed in micromolar, that give a 50% decrease in ^3[H]-thymidine uptake compared with controls.

Row | SMILES | IC50 [µM]
1 | CN1CCN(Cc2ccc(C(=O)Nc3nc(-c4cccc(C#C[Si](C)(C)C(C)(C)C)c4)cs3)cc2)CC1 [Example 24, N-(4-(3-((tert-butyldimethylsilyl)ethynyl)phenyl)thiazol-2-yl)-4-((4-methylpiperazin-1-yl)methyl)benzamide] | 2.4
2 | CC(C)[Si](C#Cc1cccc(-c2csc(NC(=O)c3ccc(-c4ccc(C(=O)N5CCN(C)CC5)cc4)o3)n2)c1)(C(C)C)C(C)C [Example 26, 5-(4-(4-methylpiperazine-1-carbonyl)phenyl)-N-(4-(3-((triisopropylsilyl)ethynyl)phenyl)thiazol-2-yl)furan-2-carboxamide] | 11
3 | CC(C)[Si](OCC#Cc1cccc(-c2csc(NC(=O)c3ccc(CN4CCN(C)CC4)cc3)n2)c1)(C(C)C)C(C)C [Example 22, 4-((4-methylpiperazin-1-yl)methyl)-N-(4-(3-(3-((triisopropylsilyl)oxy)prop-1-yn-1-yl)phenyl)thiazol-2-yl)benzamide] | 8.5
4 | CN1CCN(Cc2ccc(C(=O)Nc3nc(-c4cccc(C#Cc5ccccc5)c4)cs3)cc2)CC1 [Example 1, 4-((4-methylpiperazin-1-yl)methyl)-N-(4-(3-(phenylethynyl)phenyl)thiazol-2-yl)benzamide] | 4.7
5 | CC(C)[Si](C#Cc1ccc(-c2csc(NC(=O)c3ccc(CN4CCN(C)CC4)cc3)n2)cc1C#C[Si](C(C)C)(C(C)C)C(C)C)(C(C)C)C(C)C [Example 16, N-(4-(3,4-bis((triisopropylsilyl)ethynyl)phenyl)thiazol-2-yl)-4((4-methylpiperazin-1-yl)methyl)benzamide] | > 50
6 | CC[Si](C#Cc1cccc(-c2csc(NC(=O)c3ccc(CN4CCN(C)CC4)cc3)n2)c1)(CC)CC [Example 17, 4-((4-methylpiperazin-1-yl)methyl)-N-(4-(3-((triethylsilyl)ethynyl)phenyl)thiazol-2-yl)benzamide] | 0.46
7 | CN1CCN(Cc2ccc(C(=O)Nc3nc(-c4ccc(C#C[Si](C)(C)C(C)(C)C)cc4)cs3)cc2)CC1 [Example 37, N-(4-(4-((tert-butyldimethylsilyl)ethynyl)phenyl)thiazol-2-yl)-4-((4-methylpiperazin-1-yl)methyl)benzamide] | 2.4
8 | CC(C)(C)[Si](C#Cc1cccc(-c2csc(NC(=O)c3ccc(CN4CCOCC4)cc3)n2)c1)(c1ccccc1)c1ccccc1 [Example 41, N-(4-(3-((tert-butyldiphenylsilyl)ethynyl)phenyl)thiazol-2-yl)-4-(morpholinomethyl)benzamide] | > 50
9 | CN1CCN(Cc2ccc(C(=O)Nc3nc(-c4cccc(C#C[Si](C)(C)C)c4)cs3)cc2)CC1 [Example 18, 4-((4-methylpiperazin-1-yl)methyl)-N-(4-(3-((trimethylsilyl)ethynyl)phenyl)thiazol-2-yl)benzamide] | 0.45
10 | CN1CCN(Cc2ccc(C(=O)Nc3nc(-c4cccc(C#CCOC(c5ccccc5)(c5ccccc5)c5ccccc5)c4)cs3)cc2)CC1 [Example 30, 4-((4-methylpiperazin-1-yl)methyl)-N-(4-(3-(3-(trityloxy)prop-1-yn-1-yl)phenyl)thiazol-2-yl)benzamide] | 10
11 | COc1ccc(C#Cc2cccc(-c3csc(NC(=O)c4ccc(CN5CCN(C)CC5)cc4)n3)c2)cc1 [Example 3, N-(4-(3-((4-methoxyphenyl)ethynyl)phenyl)thiazol-2-yl)-4-((4-methylpiperazin-1-yl)methyl)benzamide] | 2.3
12 | Cc1cc(-c2csc(NC(=O)c3ccc(CN4CCN(C)CC4)cc3)n2)ccc1C#Cc1ccccc1C(F)(F)F [Example 11, N-(4-(3-methyl-4-((2-(trifluoromethyl)phenyl)ethynyl)phenyl)thiazol-2-yl)-4-((4-methylpiperazin-1-yl)methyl)benzamide] | 3.2
13 | CC(C)[Si](C#Cc1cccc(-c2csc(NC(=O)c3ccc(CN4CCN(C)CC4)cc3)n2)c1)(C(C)C)C(C)C [Example 48, 4-((4-methylpiperazin-1-yl)methyl)-N-(4-(3-((triisopropylsilyl)ethynyl)phenyl)thiazol-2-yl)benzamide] | 13
14 | CN1CCN(Cc2ccc(C(=O)Nc3nc(-c4cccc(C#C[Si](c5ccccc5)(c5ccccc5)C(C)(C)C)c4)cs3)cc2)CC1 [Example 25, N-(4-(3-((tert-butyldiphenylsilyl)ethynyl)phenyl)thiazol-2-yl)-4-((4-methylpiperazin-1-yl)methyl)benzamide] | 12
15 | Cc1ccc(C#Cc2ccc(-c3csc(NC(=O)c4ccc(CN5CCN(C)CC5)cc4)n3)cc2C)cc1 [Example 10, N-(4-(3-methyl-4-(p-tolylethynyl)phenyl)thiazol-2-yl)-4-((4-methylpiperazin-1-yl)methyl)benzamide] | 3
16 | Cc1ccc(-c2csc(NC(=O)c3ccc(CN4CCN(C)CC4)cc3)n2)cc1C#Cc1ccccc1C(F)(F)F [Example 7, N-(4-(4-methyl-3-((2-(trifluoromethyl)phenyl)ethynyl)phenyl)thiazol-2-yl)-4-((4-methylpiperazin-1-yl)methyl)benzamide] | 5

Row | SMILES | IC50 [µM]
17 | CC(C)[Si](OCC#Cc1cccc(-c2csc(NC(=O)c3ccc(-c4ccc(C(=O)N5CCN(C)CC5)cc4)o3)n2)c1)(C(C)C)C(C)C [Example 28, 5-(4-(4-methylpiperazine-1-carbonyl)phenyl)-N-(4-(3-(3-((triisopropylsilyl)oxy)prop-1-yn-1-yl)phenyl)thiazol-2-yl)furan-2-carboxamide] | 3.7
18 | CN1CCN(Cc2ccc(C(=O)Nc3nc(-c4cccc(C#CC5=CCCCC5)c4)cs3)cc2)CC1 [Example 19, N-(4-(3-(cyclohex-1-en-1-ylethynyl)phenyl)thiazol-2-yl)-4-((4-methylpiperazin-1-yl)methyl)benzamide] | 0.49
19 | CN1CCN(C(=O)c2ccc(-c3ccc(C(=O)Nc4nc(-c5cccc(C#Cc6ccccc6C(F)(F)F)c5)cs4)o3)cc2)CC1 [Example 29, 5-(4-(4-methylpiperazine-1-carbonyl)phenyl)-N-(4-(3-((2-(trifluoromethyl)phenyl)ethynyl)phenyl)thiazol-2-yl)furan-2-carboxamide] | 10
20 | CN1CCN(Cc2ccc(C(=O)Nc3nc(-c4cccc(C#Cc5ccccc5C(F)(F)F)c4)cs3)cc2)CC1 [Example 12, 4-((4-methylpiperazin-1-yl)methyl)-N-(4-(3-((2-(trifluoromethyl)phenyl)ethynyl)phenyl)thiazol-2-yl)benzamide] | 1.8
21 | CN1CCN(Cc2ccc(C(=O)Nc3nc(-c4cccc(C#Cc5ccc(F)cc5)c4)cs3)cc2)CC1 [Example 32, N-(4-(3-((4-fluorophenyl)ethynyl)phenyl)thiazol-2-yl)-4-((4-methylpiperazin-1-yl)methyl)benzamide] | 2.4
22 | CN1CCN(Cc2ccc(C(=O)Nc3nc(-c4cccc(C#Cc5ccccc5F)c4)cs3)cc2)CC1 [Example 31, N-(4-(3-((2-fluorophenyl)ethynyl)phenyl)thiazol-2-yl)-4-((4-methylpiperazin-1-yl)methyl)benzamide] | 2.2
23 | COc1ccccc1C#Cc1cc(-c2csc(NC(=O)c3ccc(CN4CCN(C)CC4)cc3)n2)ccc1C [Example 8, N-(4-(3-((2-methoxyphenyl)ethynyl)-4-methylphenyl)thiazol-2-yl)-4-((4-methylpiperazin-1-yl)methyl)benzamide] | 1.5
24 | Cc1cc(-c2csc(NC(=O)c3ccc(CN4CCN(C)CC4)cc3)n2)ccc1C#C[Si](C(C)C)(C(C)C)C(C)C [Example 15, N-(4-(3-methyl-4-((triisopropylsilyl)ethynyl)phenyl)thiazol-2-yl)-4-((4-methylpiperazin-1-yl)methyl)benzamide] | 14
25 | Cc1ccc(C#Cc2cccc(-c3csc(NC(=O)c4ccc(CN5CCN(C)CC5)cc4)n3)c2)cc1 [Example 2, 4-((4-methylpiperazin-1-yl)methyl)-N-(4-(3-(p-tolylethynyl)phenyl)thiazol-2-yl)benzamide] | 5.5
26 | CCCCC#Cc1cccc(-c2csc(NC(=O)c3ccc(CN4CCN(C)CC4)cc3)n2)c1 [Example 20, N-(4-(3-(hex-1-yn-1-yl)phenyl)thiazol-2-yl)-4-((4-methylpiperazin-1-yl)methyl)benzamide] | 7.3
27 | CC(C)[Si](C#Cc1cccc(-c2csc(NC(=O)c3ccc(CN4CCOCC4)cc3)n2)c1)(C(C)C)C(C)C [Example 38, 4-(morpholinomethyl)-N-(4-(3-((triisopropylsilyl)ethynyl)phenyl)thiazol-2-yl)benzamide] | > 50
28 | C#CCN1CCN(Cc2ccc(C(=O)Nc3nc(-c4cccc(C#C[Si](C(C)C)(C(C)C)C(C)C)c4)cs3)cc2)CC1 [Example 50, 4-((4-(prop-2-yn-1-yl)piperazin-1-yl)methyl)-N-(4-(3-((triisopropylsilyl)ethynyl)phenyl)thiazol-2-yl)benzamide] | > 50
29 | Cc1ccc(-c2csc(NC(=O)c3ccc(CN4CCN(C)CC4)cc3)n2)cc1C#Cc1ccccc1 [Example 4, N-(4-(4-methyl-3-(phenylethynyl)phenyl)thiazol-2-yl)-4-((4-methylpiperazin-1-yl)methyl)benzamide] | 5.3
30 | CC(C)OC(=O)CNCc1ccc(C(=O)Nc2nc(-c3cccc(C#C[Si](C(C)C)(C(C)C)C(C)C)c3)cs2)cc1 [Example 47, isopropyl 2-((4-((4-(3-((triisopropylsilyl)ethynyl)phenyl)thiazol-2-yl)carbamoyl)benzyl)amino)acetate] | > 25
31 | C#Cc1cccc(-c2csc(NC(=O)c3ccc(CN4CCN(C)CC4)cc3)n2)c1 [Example 49, N-(4-(3-ethynylphenyl)thiazol-2-yl)-4-((4-methylpiperazin-1-yl)methyl)benzamide] | 4

Reference: patent US9708279B2, “2-acylaminothiazoles for the treatment of cancer” (UNIVERSITA′ DEGLI STUDI DI MILANO-BICOCCA, priority 2013, dated 2017)
